From publication PMC3155278 (ACS Medicinal Chemistry Letters, 2011)

Test system: REH cells
Test: Chemotaxis
Format: cell-based
Settings: 3 h migration

SDF-1α
Lowest concentration inducing migration: 10 pM | Concentration at peak of induced migration (chemotaxis peak) (bell-shaped dose-response): 1 nM
